US8710097B2, “Flavonoid dimers and methods of making and using such” (The Hong Kong Polytechnic University, priority 2006, dated 2014)
Several values for one entry are separate records, joined by “and”; a condition that tells them apart may be missing. Identical values can stand only once.

How the values were obtained:
MDA435/LCC6 MDR cells = test: Doxorubicin accumulation; type: cell-based, human
Experimental: Doxorubicin accumulation. 2.5 ml (10^5 cells/ml) MDA435/LCC6 (both parent and MDR subtype) cells were seeded in each well of 6-well plates. At confluence, culture medium was removed. 2 ml of fresh DMEM with modulators was added and cells were incubated for 30 min at 37° C. Doxorubicin (final concentration of 20 μM) was then added and incubated for 2 h at 37° C. The cells were then harvested by trypsinization.
For P388 (both parent and MDR subtype) cells, 1 ml (10^5 cells) confluent cells were aliquot into Eppendorf tube and pre-incubated with flavone dimers for 30 min at 37° C. Doxorubicin (final concentration of 10 μM) was then added and incubated for 2 h at 37° C. at a final concentration of 10 μM. The cell pellets were washed 3 times with cold PBS by using an Eppendorf micro-centrifuge and lysed with 0.3N HCL in 50% ethanol, and sonicated for 30s. After centrifugation at 10000 rpm/min for 3 min, the supernatant was saved. The fluorescence of doxorubicin was measured using a spectrofluorometer (λexcite=470 nm, λemit=585 nm).
In order to understand whether the modulating activity for various anticancer drugs by different dimers is due to their different ability to modulate P-gp mediated drug efflux, their effects on the accumulation of doxorubicin in both MDA435/LCC6 sensitive and resistant cells were investigated. Doxorubicin was a fluorescent drug substrate of P-gp and was used in this experiment to monitor the P-gp mediated drug efflux. Accumulation of doxorubicin in these cells was determined in the presence or absence of apigenin dimers (10 μM) and monomer (20 μM). Verapamil was used as a positive control.

LePentR50 promastigotes = test: Pentamidine accumulation assay by HPLC; type: cell-based, Leishmania enriettii; settings: 0.84 mM pentamidine, 3 hr
Experimental: The effect of flavonoid dimers on accumulation of pentamidine was investigated. […] After 3 hrs of incubation, the parasites were washed three times with cold PBS, pH 7.4. The cell pellet was then dissolved in 350 μL 75% acetonitrile and lysed by repeated freeze-thaw cycles. After lysing, the lysed cell suspension was centrifuged at 14,000 g at 4° C. for 10 min. The supernatant was collected and ready for determining pentamidine concentration using HPLC (Agilent 1100 Series). The pentamidine pools were analyzed on Zorbax ODS C18 column (4.6 mm×25 cm, 5-micron) kept at 40° C. The mobile phase consisted of water (10 mM tetramethylammonium chloride (TMAC), 10 mM sodium heptanesulphonate (SHS), 4.2 mM phosphoric acid (PA)) for pump A and 75% acetonitrile (ACN) in water (10 mM TMAC, 10 mM SHS, 4.2 mM PA) for pump B. The column was equilibrated at 40° C. overnight before analyses. Using a flow rate of 1.0 mL/min and signal at 265 nm, analyses were made at 58% pump A and 42% pump B. The retention time of pentamidine is 3.2 min. Compound 9d would not be eluted out under these conditions. To generate a standard curve, a 200 μM stock solution of pentamidine isethionate salt were prepared by dissolving 2.5 mg pentamidine isethionate salt in 21 mL 75% ACN (10 mM TMAC, 10 mM SHS, 4.2 mM PA). Concentration of 100, 50, 25 and 13 μM were then made by serial dilution, allowing the generation of standard curve.

## O=c1cc(-c2ccc(OCCOCCOCCOCCOc3ccc(-c4cc(=O)c5c(O)cc(O)cc5o4)cc3)cc2)oc2cc(O)cc(O)c12 [Compound 9d, 1,13-Bis[4′-((5,7-dihydroxy)-4H-chromen-4-on-2-yl)phenyl]-1,4,7,10,13-pentaoxamidecane]
MDA435/LCC6 MDR cells; LCC6 MDR, 10 μM 9d
  doxorubicin accumulation relative to 9d-treated LCC6 cells: 97%
MDA435/LCC6 MDR cells; LCC6 MDR, apigenin dimers 10 μM, 20 μM doxorubicin, 2 h
  enhancement of doxorubicin accumulation, folds of control: 5.8 folds and 4 folds
MDA435/LCC6 MDR cells; MDA435/LCC6 MDR, 10 μM 9d, FIG. 7B
  intracellular doxorubicin concentration, % of the LCC6: 88%
LePentR50 promastigotes; 15 μM 9d
  intracellular pentamidine concentration: 2.95±0.01 μM pentamidine/mg protein
LePentR50 promastigotes; 30 μM 9d
  intracellular pentamidine concentration: 4.69±0.51 μM pentamidine/mg protein
LePentR50 promastigotes; 60 μM 9d
  intracellular pentamidine concentration: 26.6±0.6 μM pentamidine/mg protein
